In one data set the target is T1, αSYN pathology (Homo sapiens, UniProt P37840).
T1 construct: tissue Neurobiobank München (NBM, Munich, Germany); host or cells: post-mortem human brain slices (MSA cerebellum, PD frontal cortex, controls)
The data set can be described thus: in vitro autoradiography on human brain slices with αSYN pathology (MSA, PD). It is filed as binding. As for the experimental part:
Post-mortem human brain slices (10 µm thickness) were obtained from and the subject cases were analyzed by the Neurobiobank München (NBM, Munich, Germany), where tissues were collected on the basis of written informed consent according to the guidelines of the ethics committee of the Ludwig-Maximilians-University Munich, Germany (# 345-13). The use of brain tissue samples in this study was approved by the ethics committee of the Faculty of Medicine at the University of Tuebingen (Ethics approval number: 813/2018BO2). Table 1 summarizes the information of the subjects from which samples were obtained and used in the experiment.
For autoradiography, brain slices were thawed for one hour before preincubation in BSA buffer for 25 minutes at room temperature. To determine total binding (TB), brain slices were incubated with the tracer (10 nM [^18F]PFSB, 10 nM [^18F]MFSB). […]
Quantitative data analysis was performed by drawing four regions of interest (ROIs) in relevant areas of the slice and one ROI next to it for background subtraction (imaged 1.8.0_172, National Institute of Health, Bethesda, Maryland, USA) (Schneider, C. A. et al., NIH Image to imaged: 25 years of image analysis; Nat Methods 2012, 9 (7), 671-5). […] The SB disease/SB control ratio was calculated by dividing by the SB in diseased tissues with the respective SB in control tissues.

The nature of data set [1]: in vivo dynamic PET/MR imaging, pharmacokinetic profile. The note with it: healthy wild-type mice, i.v. Here is the method: The animal experiments were performed in compliance to the European directives on the protection and use of laboratory animals (Council Directive 2010/63/UE) and the German animal welfare act with approval from the local authorities (Regierungspräsidium Tuebingen, R3/19G). Three healthy wild-type female C57BU6J mice (20.3 ± 0.9 g; 9 weeks old) purchased from Charles River Laboratories (Sulzbach, Germany) were maintained in a vivarium on a 12:12 hour light dark cycle and were kept at a temperature of 22°C with 40-60% humidity and free access to a standard diet and tap water.
The mice (n = 3) were anaesthetized with 1.5% isoflurane evaporated in 100% oxygen at a flow rate of 0.8 L/min. Body temperature of 37°C was maintained using a feedback temperature control unit. PET imaging studies were performed on Inveon dedicated microPET system (Inveon D-PET, Siemens, Knoxville, TN, USA). Five seconds after the start of PET acquisition, mice were injected intravenously with 9.9 ± 0.6 MBq of [^18F]MFSB (Am = 46.2 ± 2.5 GBq/µmol at time of injection). The one-hour dynamic acquisitions were divided into 39 time frames (12×5 s, 6×10 s, 6×30 s, 5×60 s and 10×300 s). A 13-minute transmission measurement with a cobalt-57 point source was performed for attenuation correction. Subsequently, an anatomical magnetic resonance (MR) scan with a 7 Tesla MR scanner (ClinScan, Bruker BioSpin MRI GmbH, Ettlingen, Germany) using a rat whole-body volume coil and the Paravision software (v6.0.1, Bruker, Ettlingen, Germany) using a T2-weighted Turbo-RARE MRI sequence.
The PET image was reconstructed via the OSEM3D/SP-MAP reconstruction algorithm and coregistered to the whole-body MRI scan. […] Standardized uptake values (SUVs) were calculated as a ratio of the detected activity with injected activity and weight (SUV = (TAC (kBq/cc) / inj. activity (kBq)) * weight (g)).

As for `[18F]c1ccc2nc(/C=C/c3ccc(N4CCCCC4)cc3)sc2c1` [[^18F]PFSB], the “specific binding (SB) ratio, MSA patients compared to control of the same brain area” value on αSYN pathology (mean over MSA brain slices) is 3.94 ± 0.30.
With `[18F]c1ccc2nc(/C=C/c3ccc(N4CCOCC4)cc3)sc2c1` [[^18F]MFSB], in data set [1] (dynamic PET/MR over 60 min), the “crossing of the BBB” value is “crossing of the BBB was successful” and the kidney uptake result is on record as “Significant kidney uptake”. In data set [1] (first 2 min), the “SUV in lungs and liver” value is reported as “≈ 5”. For the same compound, the “SB disease/SB control, MSA1/cerebellum ctrl” value at αSYN pathology (10 nM tracer, NSB with 10 µM non-radioactive compound) came to 1.20.

For the origin of these results see EP4438597A1, “2-STYRYLBENZOTHIAZOLE DERIVATIVES AS A-SYNUCLEIN BINDING COMPOUNDS” (Eberhard Karls Universität Tübingen Medizinische Fakultät, priority 2023, dated 2024).
